According to patent publication US8119614B2, “Substitution derivatives of N6-benzyladenosine, methods of their preparation, their use for preparation of drugs, cosmetic preparations and growth regulators, pharmaceutical preparations, cosmetic preparations and growth regulators containing these compounds” (Ustav Experimentalni Botaniky Akademie Ved Ceske Republiky, priority 2002, dated 2012):

Key:
HOS = assay: In vitro cytotoxic activity, Calcein AM assay, HOS; assay type: cell-based; details: 72 hours
[1] = test system: Amaranthus caudatus cotyledon/hypocotyl explants; assay: Amaranthus bioassay (betacyanin content); assay type: in vivo; details: for Concentration with highest activity: 48 h dark; for Activity (%) [10^−5 mol · l^−1 BAP = 100%]: at concentration with highest activity
Outline: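 Surface-sterilised Amaranthus caudatus var. atropurpurea seeds were germinated 72 h at 25° C. in darkness, then de-rooted. Cotyledon/hypocotyl explants (20 per dish) were incubated under green safe light on filter paper with 1 ml medium of 10 μmol NA2HPO4-KH2PO4, pH 6.8, 5 μmol tyrosine and cytokinin (10^-8M to 10^-4M) for 48 h at 25° C. in darkness. Betacyanin was extracted in […] acetic acid and measured by absorbance at 537 nm and 620 nm.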

[2] = test system: Human T-lymphoblastic leukemia cell line CEM; assay: In vitro cytotoxic activity, Calcein AM assay, CEM; assay type: cell-based; details: 72 hours
Outline: (§1)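 GI50 values come from dose-response curves of Calcein AM fluorescence, normalised to control wells, after 72 h compound exposure. Cells grown in DMEM with 10% fetal calf serum; routine highest concentration 166.7 μM, duplicates.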

[3] = test system: breast carcinoma cell lines MCF-7; assay: In vitro cytotoxic activity, Calcein AM assay, MCF7; assay type: cell-based, human; details: 72 hours, read-out: IC 50 MCF7
Outline: as §1

[4] = test system: Triticum aestivum cv. Hereward; assay: Senescence inhibition on winter wheat leaf segments (chlorophyll retention); assay type: in vivo; details: for Concentration with highest activity: chlorophyll retention in excised wheat leaf tips, 96 h dark; for Activity (%) [10^−4 mol · l^−1 BAP = 100%]: chlorophyll retention, at concentration with highest activity
Outline: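 Tip segments of the first leaf from 7-day wheat seedlings held, basal ends down, in cytokinin solutions (10^−8M to 10^−4M) for 96 h at 25° C in darkness. Chlorophyll extracted in 80% ethanol at 80° C, read at 665 nm; activity at best concentration given relative to 10^−4 M BAP (100%), means of five replicates.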

[5] = test system: human erythroleukaemia K562; assay: In vitro cytotoxic activity, Calcein AM assay, K-562; assay type: cell-based; details: 72 hours, read-out: IC 50 K-562
Outline: as §1

promyelocytic HL-60 = assay: In vitro cytotoxic activity, Calcein AM assay, HL60; assay type: cell-based, human; details: 72 hours, read-out: IC 50 HL60
Outline: as §1

mouse fibroblasts NIH3T3 = assay: In vitro cytotoxic activity, Calcein AM assay, NIH-3T3; assay type: cell-based; details: 72 hours, read-out: IC 50 NIH-3T3
Outline: as §1

OC[C@H]1O[C@@H](n2cnc3c(NCc4ccccc4Cl)ncnc32)[C@H](O)[C@@H]1O [2-chlorobenzylamino, 6-(2-chlorobenzylamino)purine riboside]
IC50 (HOS): > 167 µM | Concentration with highest activity [1]: 10^−5 mol · l^−1 | Activity (%) [10^−5 mol · l^−1 BAP = 100%] [1]: 113 ± 7% | IC50 [2]: 14.5 µM | IC50 [3]: > 167 µM | Concentration with highest activity [4]: 10^−4 mol · l^−1 | Activity (%) [10^−4 mol · l^−1 BAP = 100%] [4]: 119 ± 9% | IC50 [5]: 64 µM | IC50 (promyelocytic HL-60): 1.6 µM | IC50 (mouse fibroblasts NIH3T3): > 167 µM

OC[C@H]1O[C@@H](n2cnc3c(NCc4ccccc4F)ncnc32)[C@H](O)[C@@H]1O [2-fluorobenzylamino, 6-(2-fluorobenzylamino)purine riboside]
IC50 (HOS): > 167 µM | Concentration with highest activity [1]: 10^−4 mol · l^−1 | Activity (%) [10^−5 mol · l^−1 BAP = 100%] [1]: 96 ± 2% | IC50 [2]: 4.6 µM | IC50 [3]: > 167 µM | Concentration with highest activity [4]: 10^−4 mol · l^−1 | Activity (%) [10^−4 mol · l^−1 BAP = 100%] [4]: 118 ± 19% | IC50 [5]: 33.2 µM | IC50 (promyelocytic HL-60): 3.2 µM

COc1cccc(CNc2ncnc3c2ncn3[C@@H]2O[C@H](CO)[C@@H](O)[C@H]2O)c1O [2-hydroxy-3-methoxybenzylamino, 6-(2-hydroxy-3-methoxybenzylamino)purine riboside]
IC50 (HOS): > 167 µM | Concentration with highest activity [1]: 10^−4 mol · l^−1 | Activity (%) [10^−5 mol · l^−1 BAP = 100%] [1]: 18 ± 5% | IC50 [2]: 0.3 µM | IC50 [3]: 27 µM | Concentration with highest activity [4]: 10^−4 mol · l^−1 | Activity (%) [10^−4 mol · l^−1 BAP = 100%] [4]: 30 ± 8% | IC50 [5]: 19.2 µM | IC50 (promyelocytic HL-60): 0.15 µM | IC50 (mouse fibroblasts NIH3T3): > 167 µM

COc1ccccc1CNc1ncnc2c1ncn2[C@@H]1O[C@H](CO)[C@@H](O)[C@H]1O [2-methoxybenzylamino, 6-(2-methoxybenzylamino)purine riboside]
IC50 (HOS): 21.2 µM | Concentration with highest activity [1]: 10^−5 mol · l^−1 | Activity (%) [10^−5 mol · l^−1 BAP = 100%] [1]: 86 ± 4% | IC50 [2]: 3.2 µM | IC50 [3]: > 167 µM | Concentration with highest activity [4]: 10^−4 mol · l^−1 | Activity (%) [10^−4 mol · l^−1 BAP = 100%] [4]: 198 ± 12% | IC50 [5]: 11.2 µM | IC50 (promyelocytic HL-60): 2.3 µM | IC50 (mouse fibroblasts NIH3T3): > 167 µM

Cc1ccccc1CNc1ncnc2c1ncn2[C@@H]1O[C@H](CO)[C@@H](O)[C@H]1O [2-methylbenzylamino, 6-(2-methylbenzylamino)purine riboside]
IC50 (HOS): > 167 µM | Concentration with highest activity [1]: 10^−5 mol · l^−1 | Activity (%) [10^−5 mol · l^−1 BAP = 100%] [1]: 105 ± 14% | IC50 [2]: 14 µM | IC50 [3]: > 167 µM | Concentration with highest activity [4]: 10^−4 mol · l^−1 | Activity (%) [10^−4 mol · l^−1 BAP = 100%] [4]: 142 ± 6% | IC50 [5]: > 167 µM | IC50 (promyelocytic HL-60): 3.3 µM | IC50 (mouse fibroblasts NIH3T3): > 167 µM

OC[C@H]1O[C@@H](n2cnc3c(NCc4ccc(Cl)c(Cl)c4)ncnc32)[C@H](O)[C@@H]1O [3,4-dichlorobenzylamino, 6-(3,4-dichlorobenzylamino)purine riboside]
IC50 (HOS): > 167 µM | Concentration with highest activity [1]: 10^−4 mol · l^−1 | Activity (%) [10^−5 mol · l^−1 BAP = 100%] [1]: 68 ± 10% | IC50 [2]: 3 µM | IC50 [3]: 88.8 µM | Concentration with highest activity [4]: 10^−4 mol · l^−1 | Activity (%) [10^−4 mol · l^−1 BAP = 100%] [4]: 151 ± 29% | IC50 [5]: 6.5 µM | IC50 (promyelocytic HL-60): 1.1 µM | IC50 (mouse fibroblasts NIH3T3): > 167 µM

OC[C@H]1O[C@@H](n2cnc3c(NCc4cccc(Br)c4)ncnc32)[C@H](O)[C@@H]1O [3-bromobenzylamino, 6-(3-bromobenzylamino)purine riboside]
IC50 (HOS): > 167 µM | Concentration with highest activity [1]: 10^−4 mol · l^−1 | Activity (%) [10^−5 mol · l^−1 BAP = 100%] [1]: 151 ± 16% | IC50 [2]: 5 µM | IC50 [3]: > 167 µM | Concentration with highest activity [4]: 10^−4 mol · l^−1 | Activity (%) [10^−4 mol · l^−1 BAP = 100%] [4]: 89 ± 10% | IC50 [5]: 19.7 µM | IC50 (promyelocytic HL-60): 8 µM | IC50 (mouse fibroblasts NIH3T3): > 167 µM

OC[C@H]1O[C@@H](n2cnc3c(NCc4cccc(Cl)c4)ncnc32)[C@H](O)[C@@H]1O [3-chlorobenzylamino, 6-(3-chlorobenzylamino)purine riboside]
IC50 (HOS): > 167 µM | Concentration with highest activity [1]: 10^−5 mol · l^−1 | Activity (%) [10^−5 mol · l^−1 BAP = 100%] [1]: 139 ± 12% | IC50 [2]: 1.6 µM | IC50 [3]: > 167 µM | Concentration with highest activity [4]: 10^−4 mol · l^−1 | Activity (%) [10^−4 mol · l^−1 BAP = 100%] [4]: 72 ± 8% | IC50 [5]: 30.4 µM | IC50 (promyelocytic HL-60): 0.75 µM | IC50 (mouse fibroblasts NIH3T3): > 167 µM

OC[C@H]1O[C@@H](n2cnc3c(NCc4cccc(F)c4)ncnc32)[C@H](O)[C@@H]1O [3-fluorobenzylamino, 6-(3-fluorobenzylamino)purine riboside]
IC50 (HOS): > 167 µM | Concentration with highest activity [1]: 10^−4 mol · l^−1 | Activity (%) [10^−5 mol · l^−1 BAP = 100%] [1]: 92 ± 6% | IC50 [2]: 4 µM | IC50 [3]: 16.6 µM | Concentration with highest activity [4]: 10^−4 mol · l^−1 | Activity (%) [10^−4 mol · l^−1 BAP = 100%] [4]: 220 ± 16% | IC50 [5]: 7 µM | IC50 (promyelocytic HL-60): 0.92 µM | IC50 (mouse fibroblasts NIH3T3): > 167 µM

COc1cccc(CNc2ncnc3c2ncn3[C@@H]2O[C@H](CO)[C@@H](O)[C@H]2O)c1 [3-methoxybenzylamino, 6-(3-methoxybenzylamino)purine riboside]
IC50 (HOS): > 167 µM | Concentration with highest activity [1]: 10^−4 mol · l^−1 | Activity (%) [10^−5 mol · l^−1 BAP = 100%] [1]: 98 ± 10% | IC50 [2]: 7.6 µM | IC50 [3]: > 167 µM | Concentration with highest activity [4]: 10^−4 mol · l^−1 | Activity (%) [10^−4 mol · l^−1 BAP = 100%] [4]: 209 ± 8% | IC50 [5]: > 167 µM | IC50 (promyelocytic HL-60): 4.9 µM | IC50 (mouse fibroblasts NIH3T3): > 167 µM

Cc1cccc(CNc2ncnc3c2ncn3[C@@H]2O[C@H](CO)[C@@H](O)[C@H]2O)c1 [3-methylbenzylamino, 6-(3-methylbenzylamino)purine riboside]
IC50 (HOS): > 167 µM | Concentration with highest activity [1]: 10^−5 mol · l^−1 | Activity (%) [10^−5 mol · l^−1 BAP = 100%] [1]: 103 ± 16% | IC50 [2]: 19.1 µM | IC50 [3]: > 167 µM | Concentration with highest activity [4]: 10^−4 mol · l^−1 | Activity (%) [10^−4 mol · l^−1 BAP = 100%] [4]: 143 ± 9% | IC50 [5]: > 167 µM | IC50 (promyelocytic HL-60): 6.4 µM | IC50 (mouse fibroblasts NIH3T3): > 167 µM

OC[C@H]1O[C@@H](n2cnc3c(NCc4ccc(Cl)cc4)ncnc32)[C@H](O)[C@@H]1O [4-chlorobenzylamino, 6-(4-chlorobenzylamino)purine riboside]
IC50 (HOS): > 167 µM | Concentration with highest activity [1]: 10^−5 mol · l^−1 | Activity (%) [10^−5 mol · l^−1 BAP = 100%] [1]: 35 ± 9% | IC50 [2]: 6.5 µM | IC50 [3]: > 167 µM | Concentration with highest activity [4]: 10^−4 mol · l^−1 | Activity (%) [10^−4 mol · l^−1 BAP = 100%] [4]: 104 ± 6% | IC50 [5]: 16.1 µM | IC50 (promyelocytic HL-60): 5.3 µM | IC50 (mouse fibroblasts NIH3T3): > 167 µM

OC[C@H]1O[C@@H](n2cnc3c(NCc4ccc(F)cc4)ncnc32)[C@H](O)[C@@H]1O [4-fluorobenzylamino, 6-(4-fluorobenzylamino)purine riboside]
IC50 (HOS): 20 µM | Concentration with highest activity [1]: 10^−5 mol · l^−1 | Activity (%) [10^−5 mol · l^−1 BAP = 100%] [1]: 71 ± 4% | IC50 [2]: 1.5 µM | IC50 [3]: 14 µM | Concentration with highest activity [4]: 10^−4 mol · l^−1 | Activity (%) [10^−4 mol · l^−1 BAP = 100%] [4]: 148 ± 2% | IC50 [5]: 6.4 µM | IC50 (promyelocytic HL-60): 0.86 µM | IC50 (mouse fibroblasts NIH3T3): > 167 µM
